Test results as given in US20100261246A1, “METHOD FOR INHIBITING TELOMERASE REACTION” (PANASONIC CORPORATION, priority 2009, published 2010).

Tested on: G-quadruplex structure (human telomeric oligo DNA)
Test: Absorbance 480 to 800 nm of phthalocyanine mixed with G-quadruplex solutions
Type: binding
Conditions: 15 μM compound solution, 50 mM HEPES, 100 mM NaCl, pH7
Protocol: Hereinafter, the interaction between anionic phthalocyanines and various DNAs was studied in Examples 6, 7, 8 and 9. For this purpose, a solution containing a G-quadruplex structure, a solution including a single-stranded DNA, and a solution containing a double-stranded DNA were first prepared according to the following procedures.
A solution of 50 mM HEPES and 100 mM NaCl, pH7 (total volume: 100 μL) containing a single-stranded DNA consisting of a sequence of 5′-[…]-3′ (SEQ ID NO: 2; this sequence being similar to a sequence of a human telomere portion, and thus the DNA referred to as “human telomeric oligo DNA” hereafter) was incubated at 90° C. for 5 min, and thereafter cooled to 0° C. at a rate of temperature fall of 2° C./min, followed by finally incubating at 0° C. for 2 hrs.
The concentrations of the human telomeric oligo DNA contained in the solution were 0, 0.5, 2, 5, 10, 25, 50 and 100 μM.
The absolute values of the positive and negative peaks were maximized for the solution having the human telomeric oligo DNA concentration of 100 μM, and dropped in the order of 50, 25, 10, 5, 2 and 0.5 μM. […] Hereafter, G-quadruplex solutions prepared from the solutions having human telomeric oligo DNA concentrations of 100, 50, 25, 10, 5, 2 and 0.5 μM are referred to as G-quadruplex solutions A, B, C, D, E, F and G, respectively. On the other hand, the solution without the human telomeric oligo DNA contained therein is referred to as NC solution.
First, a solution of 50 mM HEPES and 100 mM NaCl, pH7 (total volume: 20 μL) containing 15 μM CuPC was prepared. Then, this CuPC solution was mixed with each of the G-quadruplex solutions C, D, E and F and the NC solution, and the absorbance of these liquid mixtures were measured at 480 to 800 nm.
First, a solution of 50 mM HEPES and 100 mM NaCl, pH7 (total volume: 20 μL) containing 15 μM NiPC was prepared. Then, this NiPC solution was mixed with each of the G-quadruplex solutions D, E, F and G, and the NC solution, and the absorbance of these liquid mixtures were measured at 480 to 800 nm.
First, a solution of 50 mM HEPES and 100 mM NaCl, pH7 (total volume: 20 μL) containing 15 μM PC was prepared. Then, this PC solution was mixed with each of the G-quadruplex solutions D, E, F and G, and the NC solution, and the absorbance of these liquid mixtures were measured at 480 to 800 nm.
First, a solution of 50 mM HEPES and 100 mM NaCl, pH7 (total volume: 20 μL) containing 15 μM CoPC was prepared. Then, this CoPC solution was mixed with each of the G-quadruplex solutions B, C, D and G, and the NC solution, and the absorbance of these liquid mixtures were measured at 480 to 800 nm.

Substance	interaction with the G-quadruplex structure (absorption peak)
Copper(II) phthalocyanine-3,4′,4″,4′″-tetrasulfonic acid tetrasodium salt [CuPC]	an interaction occurred
Nickel(II) phthalocyanine tetrasulfonic acid tetrasodium salt [NiPC]	an interaction occurred
